Results: patent publication US9695155B2, “Herbicidal substituted pyrimidinyloxy benzene compounds” (E. I. DU PONT DE NEMOURS AND COMPANY, priority 2013, dated 2017)

How the values were obtained:
wheat = assay: Test A preemergence; assay type: in vivo, Triticum aestivum
Outline: (§1)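 Visual 0–100 rating (100 = complete control) taken about 10 d post-treatment relative to untreated checks. Preemergence: directed soil spray on sown loam/sand pots. Postemergence: seedlings 2–10 cm, 1–2 leaf. Non-phytotoxic solvent formulation with surfactant.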

barnyardgrass [1] = assay: Test B flooded paddy test; assay type: in vivo, Echinochloa crus-galli; settings: Echinochloa crus-galli; Flood, 250 g ai/ha; 0 to 100 scale where 0 is no effect and 100 is complete control; read-out: Plant response rating, Barnyardgrass
Outline: (§2)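 Compound added straight to paddy water, with pots kept flooded 3 cm above soil, on plants grown to the 2-leaf stage. Visual scoring 0-100 (100 = complete control) against untreated controls after 13 to 15 greenhouse days.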

large (Lg) crabgrass [2] = assay: Test C preemergence; assay type: in vivo, Digitaria sanguinalis; settings: Digitaria sanguinalis, pre-emergence
Outline: (§3)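 Visual ratings on a 0–100 scale (100 = complete control) were made versus untreated controls after 13–15 greenhouse days. Chemicals in a surfactant-containing non-phytotoxic solvent were applied either preemergence to seeds in loam–sand soil or postemergence to 1- to 4-leaf plants 2–18 cm tall.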

sedge, umbrella = assay: Test B flooded paddy test; assay type: in vivo, Cyperus difformis; settings: Cyperus difformis, Flood, 250 g ai/ha; 0 to 100 scale where 0 is no effect and 100 is complete control; read-out: Plant response rating, Sedge, Umbrella
Outline: as §2

lambsquarters = assay: Test C postemergence; assay type: in vivo, Chenopodium album; settings: Chenopodium album, post-emergence
Outline: as §3

corn [3] = assay: Test A preemergence; assay type: in vivo, Zea mays; settings: Zea mays, pre-emergence, 240 h
Outline: as §1

chickweed = assay: Test C postemergence; assay type: in vivo, Stellaria media; settings: Stellaria media, post-emergence
Outline: as §3

corn [4] = assay: Test C postemergence; assay type: in vivo, Zea mays; settings: Zea mays, post-emergence
Outline: as §3

pigweed = assay: Test C preemergence; assay type: in vivo, Amaranthus retroflexus; settings: Amaranthus retroflexus, pre-emergence
Outline: as §3

wheat, winter = assay: Test C postemergence; assay type: in vivo, Triticum aestivum; settings: Triticum aestivum, post-emergence
Outline: as §3

giant foxtail = assay: Test C postemergence; assay type: in vivo, Setaria faberii; settings: Setaria faberi, post-emergence
Outline: as §3

waterhemp = assay: Test C postemergence; assay type: in vivo, Amaranthus rudis; settings: Amaranthus tuberculatus, post-emergence
Outline: as §3

barnyardgrass [5] = assay: Test C postemergence; assay type: in vivo, Echinochloa crus-galli; settings: Echinochloa crus-galli, post-emergence
Outline: as §3

large (Lg) crabgrass [6] = assay: Test C postemergence; assay type: in vivo, Digitaria sanguinalis; settings: Digitaria sanguinalis, post-emergence
Outline: as §3

large (Lg) crabgrass [7] = assay: Test A postemergence; assay type: in vivo, Digitaria sanguinalis; settings: Digitaria sanguinalis, post-emergence, 240 h
Outline: as §1

[8] = 125 g ai/ha, 0 to 100 scale where 0 is no effect and 100 is complete control

Compound: N#Cc1cccc(Oc2ncc(Cl)cn2)c1-n1cc(C(F)(F)F)cn1 [Compound 58, 3-[(5-chloro-2-pyrimidinyl)oxy]-2-[4-(trifluoromethyl)-1H-pyrazol-1-yl]benzonitrile]
- Plant response rating, Wheat (wheat; [8]): 60
- plant injury at 500 g/ha (wheat; Triticum aestivum, pre-emergence, 240 h, 500 g ai/ha, 0 to 100 scale, 0 no effect, 100 complete control, approx. 10 days, read-out: Wheat plant response rating): 90%
- pest or weed control at 250 g/ha (barnyardgrass [1]): 80%
- pest or weed control at 62 g/ha (large (Lg) crabgrass [2]; 62 g ai/ha, preemergence, scale 0 (no effect) to 100 (complete control), read-out: Crabgrass, Large plant response rating): 100%
- pest or weed control at 125 g/ha (large (Lg) crabgrass [2]; 125 g ai/ha, preemergence, scale 0 (no effect) to 100 (complete control), read-out: Crabgrass, Large plant response rating): 100%
- pest or weed control at 250 g/ha (large (Lg) crabgrass [2]; 250 g ai/ha, preemergence, scale 0 (no effect) to 100 (complete control), read-out: Crabgrass, Large plant response rating): 100%
- pest or weed control at 31 g/ha (large (Lg) crabgrass [2]; Preemergence, 31 g ai/ha, scale 0 to 100, 0 no effect, 100 complete control, read-out: Plant response rating, Crabgrass, Large): 100%
- pest or weed control at 250 g/ha (sedge, umbrella): 90%
- pest or weed control at 125 g/ha (lambsquarters; 125 g ai/ha, postemergence, read-out: Plant response rating (0 to 100), Lambsquarters): 98%
- pest or weed control at 250 g/ha (lambsquarters; 250 g ai/ha, postemergence, read-out: Plant response rating (0 to 100), Lambsquarters): 98%
- pest or weed control at 31 g/ha (lambsquarters; Postemergence, 31 g ai/ha, scale 0 to 100 (0 no effect, 100 complete control), 13 to 15 days, read-out: Plant response rating, Lambsquarters): 75%
- pest or weed control at 62 g/ha (lambsquarters; Postemergence, 62 g ai/ha, scale 0 to 100 (0 no effect, 100 complete control), read-out: Plant response rating, Lambsquarters): 90%
- Corn plant response rating (crop injury, 0 = no effect, 100 = complete kill) at 125 g/ha (corn [3]; [8]): 40%
- plant injury at 500 g/ha (corn [3]; 500 g ai/ha, 0 to 100 scale, 0 no effect, 100 complete control, approx. 10 days, read-out: Corn plant response rating): 70%
- pest or weed control at 125 g/ha (chickweed; 125 g ai/ha, postemergence, read-out: Plant response rating (0 to 100), Chickweed): 100%
- pest or weed control at 250 g/ha (chickweed; 250 g ai/ha, postemergence, read-out: Plant response rating (0 to 100), Chickweed): 100%
- pest or weed control at 31 g/ha (chickweed; Postemergence, 31 g ai/ha, scale 0 to 100 (0 no effect, 100 complete control), 13 to 15 days, read-out: Plant response rating, Chickweed): 95%
- pest or weed control at 62 g/ha (chickweed; Postemergence, 62 g ai/ha, scale 0 to 100 (0 no effect, 100 complete control), read-out: Plant response rating, Chickweed): 95%
- plant injury at 125 g/ha (corn [4]; 125 g ai/ha, postemergence, read-out: Plant response rating (0 to 100), Corn): 25%
- plant injury at 250 g/ha (corn [4]; 250 g ai/ha, postemergence, read-out: Plant response rating (0 to 100), Corn): 45%
- Corn plant response rating (crop injury, 0 = no effect, 100 = complete kill) at 31 g/ha (corn [4]; Postemergence, 31 g ai/ha, scale 0 to 100 (0 no effect, 100 complete control), 13 to 15 days): 10%
- Corn plant response rating (crop injury, 0 = no effect, 100 = complete kill) at 62 g/ha (corn [4]; Postemergence, 62 g ai/ha, scale 0 to 100 (0 no effect, 100 complete control)): 15%
- pest or weed control at 62 g/ha (pigweed; 62 g ai/ha, preemergence, scale 0 (no effect) to 100 (complete control), read-out: Pigweed plant response rating): 100%
- pest or weed control at 125 g/ha (pigweed; 125 g ai/ha, preemergence, scale 0 (no effect) to 100 (complete control), read-out: Pigweed plant response rating): 100%
- pest or weed control at 250 g/ha (pigweed; 250 g ai/ha, preemergence, scale 0 (no effect) to 100 (complete control), read-out: Pigweed plant response rating): 100%
- pest or weed control at 31 g/ha (pigweed; Preemergence, 31 g ai/ha, scale 0 to 100, 0 no effect, 100 complete control, read-out: Plant response rating, Pigweed): 100%
- plant injury at 125 g/ha (wheat, winter; 125 g ai/ha, postemergence, read-out: Plant response rating (0 to 100), Wheat): 25%
- plant injury at 250 g/ha (wheat, winter; 250 g ai/ha, postemergence, read-out: Plant response rating (0 to 100), Wheat): 30%
- plant injury at 31 g/ha (wheat, winter; Postemergence, 31 g ai/ha, scale 0 to 100 (0 no effect, 100 complete control), 13 to 15 days, read-out: Plant response rating, Wheat): 10%
- plant injury at 62 g/ha (wheat, winter; Postemergence, 62 g ai/ha, scale 0 to 100 (0 no effect, 100 complete control), read-out: Plant response rating, Wheat): 15%
- pest or weed control at 125 g/ha (giant foxtail; 125 g ai/ha, postemergence, read-out: Plant response rating (0 to 100), Foxtail, Giant): 80%
- pest or weed control at 250 g/ha (giant foxtail; 250 g ai/ha, postemergence, read-out: Plant response rating (0 to 100), Foxtail, Giant): 95%
- pest or weed control at 31 g/ha (giant foxtail; Postemergence, 31 g ai/ha, scale 0 to 100 (0 no effect, 100 complete control), 13 to 15 days, read-out: Plant response rating, Foxtail, Giant): 15%
- pest or weed control at 62 g/ha (giant foxtail; Postemergence, 62 g ai/ha, scale 0 to 100 (0 no effect, 100 complete control), read-out: Plant response rating, Foxtail, Giant): 40%
- pest or weed control at 125 g/ha (waterhemp; 125 g ai/ha, postemergence, read-out: Plant response rating (0 to 100), Waterhemp): 90%
- pest or weed control at 250 g/ha (waterhemp; 250 g ai/ha, postemergence, read-out: Plant response rating (0 to 100), Waterhemp): 100%
- pest or weed control at 31 g/ha (waterhemp; Postemergence, 31 g ai/ha, scale 0 to 100 (0 no effect, 100 complete control), 13 to 15 days, read-out: Plant response rating, Waterhemp): 85%
- pest or weed control at 62 g/ha (waterhemp; Postemergence, 62 g ai/ha, scale 0 to 100 (0 no effect, 100 complete control), read-out: Plant response rating, Waterhemp): 90%
- pest or weed control at 125 g/ha (barnyardgrass [5]; 125 g ai/ha, postemergence, read-out: Plant response rating (0 to 100), Barnyardgrass): 15%
- pest or weed control at 250 g/ha (barnyardgrass [5]; 250 g ai/ha, postemergence, read-out: Plant response rating (0 to 100), Barnyardgrass): 75%
- pest or weed control at 31 g/ha (barnyardgrass [5]; Postemergence, 31 g ai/ha, scale 0 to 100 (0 no effect, 100 complete control), 13 to 15 days, read-out: Plant response rating, Barnyardgrass): 5%
- pest or weed control at 62 g/ha (barnyardgrass [5]; Postemergence, 62 g ai/ha, scale 0 to 100 (0 no effect, 100 complete control), read-out: Plant response rating, Barnyardgrass): 5%
- pest or weed control at 125 g/ha (large (Lg) crabgrass [6]; 125 g ai/ha, postemergence, read-out: Plant response rating (0 to 100), Crabgrass, Large): 50%
- pest or weed control at 250 g/ha (large (Lg) crabgrass [6]; 250 g ai/ha, postemergence, read-out: Plant response rating (0 to 100), Crabgrass, Large): 85%
- pest or weed control at 31 g/ha (large (Lg) crabgrass [6]; Postemergence, 31 g ai/ha, scale 0 to 100 (0 no effect, 100 complete control), 13 to 15 days, read-out: Plant response rating, Crabgrass, Large): 5%
- pest or weed control at 62 g/ha (large (Lg) crabgrass [6]; Postemergence, 62 g ai/ha, scale 0 to 100 (0 no effect, 100 complete control), read-out: Plant response rating, Crabgrass, Large): 20%
- pest or weed control at 125 g/ha (large (Lg) crabgrass [7]; 125 g ai/ha, 0 to 100 scale where 0 is no effect and 100 is complete control, read-out: Plant response rating, Crabgrass, Large): 100%
- pest or weed control at 500 g/ha (large (Lg) crabgrass [7]; 500 g ai/ha, 0 to 100 scale, 0 no effect, 100 complete control, read-out: Plant response rating Crabgrass, Large): 100%
